15 compounds from patent publication US10308644B2, “Heterocyclic compounds as immunomodulators” (Incyte Corporation, priority 2016, dated 2019) can be followed below.

As usually defined, the IC50 is the midpoint of a concentration-inhibition curve.

This assay has as its target PD-1/PD-L1 (Homo sapiens (Human), UniProt Q9NZQ7). The assay can be described thus: PD-1/PD-L1 Homogeneous Time-Resolved Fluorescence (HTRF) Binding Assay. The settings on record: recombinant human PD-1 (3 nM) and PD-L1 (10 nM), 25° C., PBS pH 7.4. The method in brief:
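Fc-tagged human PD-1 (25-167, 3 nM) and His-tagged PD-L1 (19-238, 10 nM) preincubated with inhibitor 40 min in PBS pH 7.4, 0.05% Tween-20, 0.1% BSA, 1% DMSO, 25 °C. Binding detected by HTRF (Eu anti-IgG/APC anti-His, 665/620 nm) after 60 min; IC50 from percent control activity.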
Background: TR-FRET usually uses a lanthanide donor and a delayed reading to cut background.

PD-1/PD-L1, sequence (Q9NZQ7 19-238): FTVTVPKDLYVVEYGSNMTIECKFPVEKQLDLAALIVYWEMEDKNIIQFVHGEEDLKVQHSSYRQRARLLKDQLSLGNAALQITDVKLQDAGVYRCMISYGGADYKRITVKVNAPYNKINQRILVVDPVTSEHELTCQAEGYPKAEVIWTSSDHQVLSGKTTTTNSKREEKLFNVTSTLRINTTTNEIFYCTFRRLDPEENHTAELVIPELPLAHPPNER

For `Cc1c(Nc2nccc3cc(CN4CCCC4)cnc23)cccc1-c1cccc(-c2nc3cc(CN4CC[C@@](C)(C(=O)O)C4)cc(C#N)c3o2)c1C` [Example 193, (R)-1-((7-cyano-2-(2,2′-dimethyl-3′-(3-(pyrrolidin-1-ylmethyl)-1,7-naphthyridin-8-ylamino)biphenyl-3-yl)benzo[d]oxazol-5-yl)methyl)-3-methylpyrrolidine-3-carboxylic acid], the IC50 is ≤ 10 nM. Next, `CC[C@@H](CO)NCc1cnc2c(Nc3cccc(-c4cccc(-c5nc6cc(CN7CC[C@@](C)(C(=O)O)C7)cc(C#N)c6o5)c4C)c3C)nccc2c1` [Example 194, (R)-1-((7-cyano-2-(3′-(3-(((S)-1-hydroxybutan-2-ylamino)methyl)-1,7-naphthyridin-8-ylamino)-2,2′-dimethylbiphenyl-3-yl)benzo[d]oxazol-5-yl)methyl)-3-methylpyrrolidine-3-carboxylic acid]: ≤ 10 nM; `Cc1c(Nc2nccc3cc(CN[C@@H](C)CO)cnc23)cccc1-c1cccc(-c2nc3cc(CN4CC[C@@](C)(C(=O)O)C4)cc(C#N)c3o2)c1C` [Example 195, (R)-1-((7-cyano-2-(3′-(3-(((S)-1-hydroxypropan-2-ylamino)methyl)-1,7-naphthyridin-8-ylamino)-2,2′-dimethylbiphenyl-3-yl)benzo[d]oxazol-5-yl)methyl)-3-methylpyrrolidine-3-carboxylic acid]: ≤ 10 nM.

Turning to `Cc1c(Nc2nccc3cc(CN[C@H](C)CO)cnc23)cccc1-c1cccc(-c2nc3cc(CN4CC[C@@](C)(C(=O)O)C4)cc(C#N)c3o2)c1C` [Example 196, (R)-1-((7-cyano-2-(3′-(3-(((R)-1-hydroxypropan-2-ylamino)methyl)-1,7-naphthyridin-8-ylamino)-2,2′-dimethylbiphenyl-3-yl)benzo[d]oxazol-5-yl)methyl)-3-methylpyrrolidine-3-carboxylic acid], the IC50 is ≤ 10 nM. Next, `CNCc1cnc2c(Nc3cccc(-c4cccc(-c5nc6cc(CN7CC[C@@](C)(C(=O)O)C7)cc(C#N)c6o5)c4C)c3C)nccc2c1` [Example 197, (R)-1-((7-cyano-2-(2,2′-dimethyl-3′-(3-((methylamino)methyl)-1,7-naphthyridin-8-ylamino)biphenyl-3-yl)benzo[d]oxazol-5-yl)methyl)-3-methylpyrrolidine-3-carboxylic acid]: ≤ 10 nM. Regarding `Cc1c(Nc2nccc3cc(CNC(C)(C)CO)cnc23)cccc1-c1cccc(-c2nc3cc(CN4CC[C@@](C)(C(=O)O)C4)cc(C#N)c3o2)c1C` [Example 198, (R)-1-((7-cyano-2-(3′-(3-((1-hydroxy-2-methylpropan-2-ylamino)methyl)-1,7-naphthyridin-8-ylamino)-2,2′-dimethylbiphenyl-3-yl)benzo[d]oxazol-5-yl)methyl)-3-methylpyrrolidine-3-carboxylic acid], the IC50 is ≤ 10 nM. Next, `Cc1c(Nc2nccc3cc(CNCC4(O)CC4)cnc23)cccc1-c1cccc(-c2nc3cc(CN4CC[C@@](C)(C(=O)O)C4)cc(C#N)c3o2)c1C` [Example 199, (R)-1-((7-cyano-2-(3′-(3-(((1-hydroxycyclopropyl)methylamino)methyl)-1,7-naphthyridin-8-ylamino)-2,2′-dimethylbiphenyl-3-yl)benzo[d]oxazol-5-yl)methyl)-3-methylpyrrolidine-3-carboxylic acid]: ≤ 10 nM; `Cc1c(Nc2nccc3cc(CN4CC[C@](C)(O)C4)cnc23)cccc1-c1cccc(-c2nc3cc(CN4CC[C@@](C)(C(=O)O)C4)cc(C#N)c3o2)c1C` [Example 200, (R)-1-((7-cyano-2-(3′-(3-(((S)-3-hydroxy-3-methylpyrrolidin-1-yl)methyl)-1,7-naphthyridin-8-ylamino)-2,2′-dimethylbiphenyl-3-yl)benzo[d]oxazol-5-yl)methyl)-3-methylpyrrolidine-3-carboxylic acid]: ≤ 10 nM. With `Cc1c(Nc2nccc3cc(CN[C@@H](C)CO)cnc23)cccc1-c1cccc(-c2nc3cc(CN4CCC(C(=O)O)CC4)cc(C#N)c3o2)c1C` [Example 201, (S)-1-((7-cyano-2-(3′-(3-((1-hydroxypropan-2-ylamino)methyl)-1,7-naphthyridin-8-ylamino)-2,2′-dimethylbiphenyl-3-yl)benzo[d]oxazol-5-yl)methyl)piperidine-4-carboxylic acid], the IC50 is ≤ 10 nM.

For `Cc1c(Nc2nccc3cc(CN[C@H](C)CO)cnc23)cccc1-c1cccc(-c2nc3cc(CN4CCC(C(=O)O)CC4)cc(C#N)c3o2)c1C` [Example 202, (R)-1-((7-cyano-2-(3′-(3-((1-hydroxypropan-2-ylamino)methyl)-1,7-naphthyridin-8-ylamino)-2,2′-dimethylbiphenyl-3-yl)benzo[d]oxazol-5-yl)methyl)piperidine-4-carboxylic acid], the IC50 is ≤ 10 nM. As for `Cc1c(Nc2nccc3cc(CNC[C@@H](C)O)cnc23)cccc1-c1cccc(-c2nc3cc(CN4CCC(C(=O)O)CC4)cc(C#N)c3o2)c1C` [Example 203, (R)-1-((7-cyano-2-(3′-(3-((2-hydroxypropylamino)methyl)-1,7-naphthyridin-8-ylamino)-2,2′-dimethylbiphenyl-3-yl)benzo[d]oxazol-5-yl)methyl)piperidine-4-carboxylic acid], the IC50 was ≤ 10 nM.

In the case of `Cc1c(Nc2nccc3cc(CNC[C@H](C)O)cnc23)cccc1-c1cccc(-c2nc3cc(CN4CCC(C(=O)O)CC4)cc(C#N)c3o2)c1C` [Example 204, (S)-1-((7-cyano-2-(3′-(3-((2-hydroxypropylamino)methyl)-1,7-naphthyridin-8-ylamino)-2,2′-dimethylbiphenyl-3-yl)benzo[d]oxazol-5-yl)methyl)piperidine-4-carboxylic acid], the IC50 is ≤ 10 nM. In the case of `Cc1c(Nc2ncnc3cc(CN4CC[C@@H](O)C4)cnc23)cccc1-c1cccc(-c2nc3cc(CN4CC[C@@](C)(C(=O)O)C4)cc(C#N)c3o2)c1C` [Example 205, (R)-1-((7-cyano-2-(3′-(7-(((R)-3-hydroxypyrrolidin-1-yl)methyl)pyrido [3,2-d]pyrimidin-4-ylamino)-2,2-dimethylbiphenyl-3-yl)benzo[d]oxazol-5-yl)methyl)-3-methylpyrrolidine-3-carboxylic acid], the IC50 is ≤ 10 nM. The value for `Cc1c(Nc2ncnc3cc(CN4CC[C@@H](O)C4)cnc23)cccc1-c1cccc(-c2nc3cc(CN4CCC[C@H](C(=O)O)C4)cc(C#N)c3o2)c1C` [Example 206, (S)-1-((7-cyano-2-(3′-(7-(((R)-3-hydroxypyrrolidin-1-yl)methyl)pyrido [3,2-d]pyrimidin-4-ylamino)-2,2′-dimethylbiphenyl-3-yl)benzo[d]oxazol-5-yl)methyl)piperidine-3-carboxylic acid] was ≤ 10 nM; that for `Cc1c(Nc2ncnc3cc(CN4CC[C@@H](O)C4)cnc23)cccc1-c1cccc(-c2nc3cc(CN4CCC(C(=O)O)CC4)cc(C#N)c3o2)c1C` [Example 207, (R)-1-((7-cyano-2-(3′-(7-((3-hydroxypyrrolidin-1-yl)methyl)pyrido [3,2-d]pyrimidin-4-ylamino)-2,2′-dimethylbiphenyl-3-yl)benzo[d]oxazol-5-yl)methyl)piperidine-4-carboxylic acid] was ≤ 10 nM.
